Results taken from PubChem BioAssay (NCI).
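These data come from cells grown in 96-well plates and exposed to compound for 48 hours at five concentrations. The concentration for 50% growth inhibition is given as GI50. TGI: total growth inhibition.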

Tests used:
Assay in all cases: growth of human tumour cells (NCI), 48 h
T-47D breast = tested on: T-47D breast
NCI-H522 lung = tested on: NCI-H522 lung
SK-OV-3 ovarian = tested on: SK-OV-3 ovarian
LOX IMVI melanoma = tested on: LOX IMVI melanoma
M14 melanoma = tested on: M14 melanoma
TK-10 renal = tested on: TK-10 renal
COLO 205 colon = tested on: COLO 205 colon
SK-MEL-5 melanoma = tested on: SK-MEL-5 melanoma
A549 NSCLC = tested on: A549 NSCLC
BT-549 breast = tested on: BT-549 breast
K-562 leukemia = tested on: K-562 leukemia
OVCAR-5 ovarian = tested on: OVCAR-5 ovarian
HS 578T breast = tested on: HS 578T breast
OVCAR-8 ovarian = tested on: OVCAR-8 ovarian
SF-268 CNS = tested on: SF-268 CNS
HCT-15 colon = tested on: HCT-15 colon
KM12 colon = tested on: KM12 colon
HOP-92 NSCLC = tested on: HOP-92 NSCLC
OVCAR-3 ovarian = tested on: OVCAR-3 ovarian
RPMI-8226 leukemia = tested on: RPMI-8226 leukemia
HOP-62 NSCLC = tested on: HOP-62 NSCLC
NCI-H226 lung = tested on: NCI-H226 lung
SNB-75 CNS = tested on: SNB-75 CNS
MCF7 breast = tested on: MCF7 breast
UACC-257 melanoma = tested on: UACC-257 melanoma
MDA-MB-435 = tested on: MDA-MB-435

COc1ccc(C(=O)/C=C/c2cccc([N+](=O)[O-])c2)c(OC)c1
GI50 (T-47D breast): 1930 nM | TGI (T-47D breast): > 50000 nM | GI50 (NCI-H522 lung): 1600 nM | TGI (NCI-H522 lung): > 50000 nM | GI50 (SK-OV-3 ovarian): 18900 nM | TGI (SK-OV-3 ovarian): > 50000 nM | GI50 (LOX IMVI melanoma): 895 nM | TGI (LOX IMVI melanoma): 1940 nM | GI50 (M14 melanoma): 1620 nM | TGI (M14 melanoma): > 50000 nM | GI50 (TK-10 renal): 1590 nM | TGI (TK-10 renal): > 50000 nM | GI50 (COLO 205 colon): 6850 nM | TGI (COLO 205 colon): > 50000 nM | GI50 (SK-MEL-5 melanoma): 2370 nM | TGI (SK-MEL-5 melanoma): > 50000 nM | GI50 (A549 NSCLC): 2560 nM | TGI (A549 NSCLC): > 50000 nM | GI50 (BT-549 breast): 1120 nM | TGI (BT-549 breast): 2990 nM | GI50 (K-562 leukemia): 999 nM | TGI (K-562 leukemia): 3080 nM | GI50 (OVCAR-5 ovarian): 1560 nM | TGI (OVCAR-5 ovarian): > 50000 nM | GI50 (HS 578T breast): 3850 nM | TGI (HS 578T breast): > 50000 nM | GI50 (OVCAR-8 ovarian): 1780 nM | TGI (OVCAR-8 ovarian): > 50000 nM | GI50 (SF-268 CNS): 1620 nM | TGI (SF-268 CNS): > 50000 nM | GI50 (HCT-15 colon): 916 nM | TGI (HCT-15 colon): 2610 nM | GI50 (KM12 colon): 1610 nM | TGI (KM12 colon): 7650 nM | GI50 (HOP-92 NSCLC): 3920 nM | TGI (HOP-92 NSCLC): > 50000 nM | GI50 (OVCAR-3 ovarian): 1720 nM | TGI (OVCAR-3 ovarian): > 50000 nM | GI50 (RPMI-8226 leukemia): 1090 nM | TGI (RPMI-8226 leukemia): 3140 nM | GI50 (HOP-62 NSCLC): 1800 nM | TGI (HOP-62 NSCLC): > 50000 nM | GI50 (NCI-H226 lung): 1650 nM | TGI (NCI-H226 lung): 7770 nM | GI50 (SNB-75 CNS): 1610 nM | TGI (SNB-75 CNS): > 50000 nM | GI50 (MCF7 breast): 1370 nM | TGI (MCF7 breast): > 50000 nM | GI50 (UACC-257 melanoma): > 50000 nM | TGI (UACC-257 melanoma): > 50000 nM | GI50 (MDA-MB-435): 1760 nM
